The text below walks through data of patent publication US4335213A (priority 1979, dated 1982).

Assay [1] relates to galactose oxidase. The format is biochemical, Gibberella fujikuroi Y-530929. Particulars: 25° C., pH 7.0.
The test system of assay [2] is galactose oxidase. In words: Substrate specificity of galactose oxidase (quinoneimine colorimetric assay).

Where two headings read alike, the source gives them in different places.

In the assay with galactose oxidase [1], `O=[N+]([O-])[O-].[Ag+]` [AgNO3] came in with an Inhibition rate of 100%. Consider `O=C(O)CN(CCN(CC(=O)O)CC(=O)O)CC(=O)O` [EDTA, ethylenediaminetetraacetic acid], for which the Inhibition rate in the assay on galactose oxidase [1] (inhibitor 10^-3 M) is reported as 52%. For the molecule `NO` [NH2 OH], the Inhibition rate with galactose oxidase [1] is 100%.

For `[N-]=[N+]=[N-].[Na+]` [NaN3], in the assay with galactose oxidase [1], the Inhibition rate worked out at 94%. The same measure, in the same setting: the same measure for `O=C(O)c1cc[c]([Hg][Cl])cc1` [PCMB, parachloromercurybenzoate]: 57%.

Turning to `O=C(CO)CO` [dihydroxyacetone], the “action of the enzyme on the substrate” value with galactose oxidase [2] is “acts on”. The same measure, in the same setting: the same measure for `OC[C@H]1O[C@H](OC[C@H]2OC(O)[C@H](O)[C@@H](O)[C@@H]2O)[C@H](O)[C@@H](O)[C@H]1O` (stereo partly drawn) [melibiose]: “acts on”. In turn, `c1cnc2c(c1)ccc1cccnc12` [o-phenanthroline] yielded an Inhibition rate in the assay with galactose oxidase [1] (inhibitor 10^-3 M) of 68%. Regarding `OC[C@H]1O[C@H](OC[C@H]2O[C@H](O[C@]3(CO)O[C@H](CO)[C@@H](O)[C@@H]3O)[C@H](O)[C@@H](O)[C@@H]2O)[C@H](O)[C@@H](O)[C@H]1O` [raffinose], the “action of the enzyme on the substrate” value with galactose oxidase [2] is “acts on”.
